Assay results as given in patent publication US20080280872A1, “Benzamide Derivatives and Their Use as Glucokinase Activating Agents” (priority 2004, published 2008).
pEC50: −log10 of the molar value.

Experiments:
[1] = target: T1, recombinant human pancreatic GLK (Homo sapiens, UniProt P35557); assay: Enzymatic activity of glucokinase (GLK activation, G-6-P dehydrogenase coupled, OD 340 nm); assay type: biochemical
T1 construct: 6-His (N); made in house; host or cells: E. coli BL21
T1 sequence (P35557 1-465): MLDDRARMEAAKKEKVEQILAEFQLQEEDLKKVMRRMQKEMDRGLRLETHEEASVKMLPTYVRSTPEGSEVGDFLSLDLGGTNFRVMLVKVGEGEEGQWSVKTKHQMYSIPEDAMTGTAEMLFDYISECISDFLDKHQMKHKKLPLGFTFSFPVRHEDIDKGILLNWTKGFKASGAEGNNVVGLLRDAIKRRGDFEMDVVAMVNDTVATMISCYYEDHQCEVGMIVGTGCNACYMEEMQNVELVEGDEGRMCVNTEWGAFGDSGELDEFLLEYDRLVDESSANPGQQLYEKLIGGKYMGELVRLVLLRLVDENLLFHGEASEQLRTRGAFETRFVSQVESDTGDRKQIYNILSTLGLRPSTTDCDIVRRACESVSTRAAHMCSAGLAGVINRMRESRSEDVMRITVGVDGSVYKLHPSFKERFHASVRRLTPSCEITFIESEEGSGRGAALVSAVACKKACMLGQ

Zucker obese fa/fa rats = assay: Oral Glucose Tolerance Test (OGTT); assay type: in vivo, rat; conditions: 10 mg/kg, given orally 120 minutes before glucose 2 g/kg; percent inhibition of blood glucose AUC vs vehicle
Procedure: The animals were fasted for 2 hours before use for experiments. A test compound or a vehicle was given orally 120 minutes before oral administration of a glucose solution at a dose of 2 g/kg body weight. Blood glucose levels were measured using a Accucheck glucometer from tail bled samples taken at different time points before and after administration of glucose (time course of 60 minutes). […] Percent inhibition was determined using the AUC in the vehicle-control group as zero percent inhibition.

Oral exposure = assay type: in vivo; conditions: compared with Example II107 in WO 03/015774

EC50 values, Example 11b compared with Example II107 in WO 03/015774 ([1]; comparison in words): broadly similar | pEC50 ([1]; read-out: activating activity for glucokinase, EC50): 7.52 | oral exposure (Oral exposure): superior oral exposure
Structure (SMILES): COC[C@H](C)Oc1cc(Oc2ccc(S(C)(=O)=O)cc2)cc(C(=O)Nc2nccs2)c1 [Example 11b, 3-[(1S)-2-methoxy-(1-methylethyl)oxy]-5-[4-(methylsulfonyl)phenoxy]-N-1,3-thiazol-2-ylbenzamide]
OGTT activity (Zucker obese fa/fa rats): 29%
